Experimental data reported in patent publication US8399663B2, “Salt of 1,3,5-triazine-2,4,6-triamine derivative” (Astellas Pharma Inc., priority 2009, dated 2013).

What was measured:
[1] = system: methamphetamine-induced hyperlocomotion; test: Methamphetamine-induced hyperlocomotion model (animal model of Schizophrenia); assay type: in vivo, male ddY mouse; details: oral administration to male ddY mice
Method: Methamphetamine is a psychostimulant, and is known to cause symptoms that are similar to Schizophrenia by increasing the transmission in the dopaminergic neurons. The abnormal behavior produced when methamphetamine is administered to an animal is generally used as a screening method for a therapeutic drug for Schizophrenia (Oka et al., 1993, J. Pharmacol. Exp. Ther., 264:158-165, herein incorporated by reference). That is, a male ddY mouse was placed in an activity monitoring apparatus, and after 30 min, methamphetamine was administered. Immediately after administering methamphetamine, the mouse was returned to the monitoring apparatus, and the activity for 1 hour from immediately after the return was measured. For the measurement of the activity, a Supermex sensor manufactured by Muromachi Kikai Co., Ltd. was used. A solvent, or a diluted solution obtained by diluting each of the test compounds with a solvent at multiple concentrations was orally administered to mice in a group. As the solvent, a 0.5% aqueous methyl cellulose solution was used. The statistical analysis was carried out between the group administered with the solvent and the group administered with the drug, using a Dunnett's test.

[2] = pKa value of the compound; assay type: physicochemical

pKa [2] | Compound | methamphetamine-induced hyperlocomotion inhibitory action [1]
3.9 | Fc1ccc(Nc2nc(NCc3ncccn3)nc(Nc3ccccc3)n2)cc1 [compound A, N-(4-fluorophenyl)-N′-phenyl-N″-(pyrimidin-2-ylmethyl)-1,3,5-triazine-2,4,6-triamine] | inhibited the methamphetamine-induced hyperlocomotion
– | Fc1ccc(Nc2nc(NCc3ncccn3)nc(Nc3ccc(F)cc3)n2)cc1 [compound B, N,N′-bis(4-fluorophenyl)-N″-(pyrimidin-2-ylmethyl)-1,3,5-triazine-2,4,6-triamine] | inhibited the methamphetamine-induced hyperlocomotion
